Measurements: ChEMBL document CHEMBL5532705, “Bioactivity-Based Molecular Networking-Guided Isolation of Epicolidines A-C from the Endophytic Fungus Epicoccum sp. 1-042” (2024)
Numbered stars: 1 amine (or outer) side, 2 acyl side, 3 side chain; on linkers, the order of the positions; unused ones are H or OH. Bridge positions count the residues as written; N and C are the ends. Square brackets hold non-standard residues; d marks the D form. Peptide text beside a SMILES is read from it. * marks the point of attachment. X1 = O=C1C[C@@H](C(=O)[*:2])N([*:1])C[C@H]1CS[C@@H]1CN2CCC1CC2; NMePhe(4-NMe2) = CN[C@@H](Cc1ccc(N(C)C)cc1)C(=O)O; Picolinoyl(3-OH) = O=C(c1ncccc1O)*; Phg = N[C@H](C(=O)O)c1ccccc1; dAbu = CC[C@@H](N)C(=O)O

Legend:
Format in all cases: functional
[1] = tested on: Enterococcus faecium; experiment: Antimicrobial activity against vancomycin resistant Enterococcus faecium 310682 assessed as inhibition of microbial growth incubated for 16 hrs by broth microdilution method
[2] = tested on: Staphylococcus aureus; experiment: Antimicrobial activity against methicillin resistant Staphylococcus aureus 181404 assessed as inhibition of microbial growth incubated for 16 hrs by broth microdilution method
[3] = tested on: Pseudomonas aeruginosa; experiment: Antimicrobial activity against Pseudomonas aeruginosa ATCC 27853 assessed as inhibition of microbial growth incubated for 16 hrs by broth microdilution method
[4] = tested on: Escherichia coli; experiment: Antimicrobial activity against Escherichia coli ATCC 25922 assessed as inhibition of microbial growth incubated for 16 hrs by broth microdilution method
[5] = tested on: Staphylococcus aureus; experiment: Antimicrobial activity against Staphylococcus aureus ATCC 29213 assessed as inhibition of microbial growth incubated for 16 hrs by broth microdilution method
[6] = tested on: Enterococcus faecium; experiment: Antibacterial activity against vancomycin resistant Enterococcus faecium 310682 infected in Galleria mellonella last-instar larvae assessed as survival at 10 mg/kg measured after 1 day (reference value: 30%); details: Enterococcus faecium, 310682, 24 h
[7] = tested on: Candida tropicalis; experiment: Antimicrobial activity against Candida tropicalis ATCC 1369 assessed as inhibition of microbial growth incubated for 16 hrs by broth microdilution method
[8] = tested on: Enterococcus faecium; experiment: Antimicrobial activity against Enterococcus faecium ATCC 35667 assessed as inhibition of microbial growth incubated for 16 hrs by broth microdilution method
[9] = tested on: Enterococcus faecium; experiment: Antibacterial activity against vancomycin resistant Enterococcus faecium 310682 infected in Galleria mellonella last-instar larvae assessed as survival at 0.20 mg/kg measured after 1 day (reference value: 30%); details: Enterococcus faecium, 310682, 24 h
[10] = tested on: Enterococcus faecium; experiment: Antibacterial activity against vancomycin resistant Enterococcus faecium 310682 infected in Galleria mellonella last-instar larvae assessed as survival at 1 mg/kg measured after 1 day (reference value: 30%); details: Enterococcus faecium, 310682, 24 h
[11] = tested on: Klebsiella pneumoniae; experiment: Antimicrobial activity against Klebsiella pneumoniae ATCC 700603 assessed as inhibition of microbial growth incubated for 16 hrs by broth microdilution method
[12] = tested on: Candida albicans; experiment: Antimicrobial activity against Candida albicans ATCC 10231 assessed as inhibition of microbial growth incubated for 16 hrs by broth microdilution method
[13] = tested on: Enterococcus faecium; experiment: Antimicrobial activity against vancomycin resistant Enterococcus faecium 310682 assessed as inhibition of microbial growth incubated for 16 hrs in presence of dalfopristin by broth microdilution method
[14] = tested on: Enterococcus faecium; experiment: Antimicrobial activity against vancomycin resistant Enterococcus faecium 310682 assessed as inhibition of microbial growth incubated for 16 hrs in presence of quinupristin by broth microdilution method

| Compound | MIC [1] [µg/mL] | MIC [2] [µg/mL] | MIC [3] [µg/mL] | MIC [4] [µg/mL] | MIC [5] [µg/mL] | survival at 10 mg/kg [6] [%] | MIC [7] [µg/mL] | MIC [8] [µg/mL] | survival at 0.2 mg/kg [9] [%] | survival at 1 mg/kg [10] [%] | MIC [11] [µg/mL] | MIC [12] [µg/mL] | MIC [13] [µg/mL] | MIC [14] [µg/mL] |
| --- | --- | --- | --- | --- | --- | --- | --- | --- | --- | --- | --- | --- | --- | --- |
| CN[C@H](CC(C)C)C(=O)N[C@H]1C(=O)N[C@@H](CC(N)=O)C(=O)N[C@H]2C(=O)N[C@H]3C(=O)N[C@H](C(=O)N[C@H](C(=O)O)c4cc(O)cc(O)c4-c4cc3ccc4O)[C@H](O)c3ccc(c(Cl)c3)Oc3cc2cc(c3O[C@@H]2O[C@H](CO)[C@@H](O)[C@H](O)[C@H]2O[C@H]2C[C@](C)(N)[C@H](O)[C@H](C)O2)Oc2ccc(cc2Cl)[C@H]1O [VANCOMYCIN] | > 16 | 0.25 |  |  |  |  |  |  |  |  |  |  |  |  |
| CC[C@H](C)[C@H]1C(=O)/C(=C(/O)[C@H]2[C@@H]3[C@H](C)C[C@H](C)C[C@@H]3C=C[C@@H]2[C@]2(C)O[C@H]2C)C(=O)N1C | 0.25 | 0.5 | > 128 | > 128 | 0.25 | 100 | > 128 | 1 | 0 | 40 | > 128 | 8 |  |  |
| C[C@@H](O)[C@H]1C(=O)N2C(C(=O)O)=C(S[C@@H]3CN[C@H](C(=O)N(C)C)C3)[C@H](C)[C@H]12 [MEROPENEM] | > 16 | > 16 | 16 | 0.5 | 2 |  |  | > 16 |  |  | 2 |  |  |  |
| CC[C@H](C)[C@@H]1N(C)C(=O)[C@H]2C(=O)[C@H]3[C@@H]4[C@H](C)C[C@H](C)C[C@@H]4C=C[C@@H]3[C@@]3(C)O[C@]21O[C@H]3C | 16 | 16 | > 128 | > 128 | 64 |  | > 128 | 64 |  |  | > 128 | > 128 |  |  |
| OC(Cn1cncn1)(Cn1cncn1)c1ccc(F)cc1F [FLUCONAZOLE] |  |  |  |  |  |  | 2 |  |  |  |  | 8 |  |  |
| CC[C@H]1NC(=O)[C@@H](NC(=O)c2ncccc2O)[C@@H](C)OC(=O)[C@H](c2ccccc2)NC(=O)[C@@H]2CC(=O)[C@H](CS[C@@H]3CN4CCC3CC4)CN2C(=O)[C@H](Cc2ccc(N(C)C)cc2)N(C)C(=O)[C@@H]2CCCN2C1=O [QUINUPRISTIN] ({Picolinoyl(3-OH)}-T[dAbu]P[NMePhe(4-NMe2)][X1][Phg]; ester 1-C) |  |  |  |  |  |  |  |  |  |  |  |  | 0.5 |  |
| C=C([C@H](C)O)[C@H]1C=C[C@H]2C[C@@H](C)C[C@@H](C)[C@H]2[C@@H]1/C(O)=C1\C(=O)[C@H]([C@@H](C)CC)N(C)C1=O | 2 | 2 | > 128 | > 128 | 2 |  | > 128 | 8 |  |  | > 128 | 128 |  |  |
| CCN(CC)CCS(=O)(=O)[C@@H]1CCN2C(=O)c3coc(n3)CC(=O)C[C@H](O)/C=C(C)/C=C/CNC(=O)/C=C/[C@@H](C)[C@@H](C(C)C)OC(=O)[C@@H]12 [DALFOPRISTIN] |  |  |  |  |  |  |  |  |  |  |  |  |  | 0.5 |
